ChEMBL document CHEMBL1201862, “PubChem BioAssay data set” (2004)
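96-well plates; 48 h exposure; 5 concentrations. Endpoints by linear interpolation between flanking doses. Not reached: highest tested concentration assigned. Here, GI50 denotes the concentration required for 50% inhibition of growth.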 Active and inactive are the calls of the source. No stated cut-off is given here; in the data, active = GI50 up to about 1.1 µM and inactive = higher.

Tests used:
Assay in all cases: growth of human tumour cells (NCI), 48 h
UACC-257 = system: UACC-257
NCI-H460 = system: NCI-H460
SW-620 = system: SW-620
A498 = system: A498
NCI-H23 = system: NCI-H23
K562 = system: K562
UO-31 = system: UO-31
OVCAR-3 = system: OVCAR-3
LOX IMVI = system: LOX IMVI
SF-268 = system: SF-268
UACC-62 = system: UACC-62
HOP-92 = system: HOP-92
ACHN = system: ACHN
RXF 393 = system: RXF 393
NCI-H522 = system: NCI-H522
786-0 = system: 786-0
SK-MEL-5 = system: SK-MEL-5
SR = system: SR

Measured: GI50

O=C1c2ccccc2C(=O)c2c(NCCNCCO)ccc(O)c21
inactive: UACC-257 3.29 µM | NCI-H460 1.44 µM | SW-620 2.26 µM | A498 5.53 µM | NCI-H23 2.59 µM | K562 4.86 µM | UO-31 1.49 µM | OVCAR-3 6.46 µM | LOX IMVI 1.51 µM | SF-268 2.14 µM | UACC-62 3.35 µM | HOP-92 3.21 µM | ACHN 2.73 µM | RXF 393 2.15 µM | NCI-H522 2.59 µM | 786-0 3.66 µM | SK-MEL-5 3.18 µM

C=CCC(OCCOCC)c1cc(OCCOCC)ccc1OC (configuration not stated)
inactive: UACC-257 > 100 µM | NCI-H460 > 100 µM | SW-620 > 100 µM | K562 > 100 µM | UO-31 > 100 µM | OVCAR-3 > 100 µM | LOX IMVI > 100 µM | SF-268 > 100 µM | UACC-62 > 100 µM | HOP-92 > 100 µM | ACHN > 100 µM | RXF 393 > 100 µM | NCI-H522 > 100 µM | 786-0 > 100 µM | SK-MEL-5 > 100 µM

CCOc1ccc(NCC2CC/C(=C\c3ccccc3OC)C2=O)cc1 (configuration not stated)
inactive: UACC-257 7.38 µM | SW-620 4.23 µM | A498 19.6 µM | NCI-H23 19.2 µM | K562 2.7 µM | UO-31 13.4 µM | OVCAR-3 6.37 µM | LOX IMVI 6.61 µM | SF-268 7.29 µM | UACC-62 11.8 µM | HOP-92 19.5 µM | ACHN 14.6 µM | RXF 393 8.91 µM | NCI-H522 1.94 µM | 786-0 3.01 µM | SK-MEL-5 16.1 µM

COC(=O)/C(=N\Nc1nc(S)nn1N)C(C#N)c1ccccc1 (configuration not stated)
inactive: UACC-257 > 100 µM | NCI-H460 > 100 µM | SW-620 > 100 µM | A498 > 100 µM | NCI-H23 > 100 µM | K562 > 100 µM | UO-31 > 100 µM | OVCAR-3 > 100 µM | LOX IMVI > 100 µM | SF-268 > 100 µM | UACC-62 > 100 µM | ACHN > 100 µM | RXF 393 > 100 µM | NCI-H522 > 100 µM | 786-0 > 100 µM | SK-MEL-5 > 100 µM

O=C(O)c1ccccc1[Se][Se]c1ccccc1C(=O)O
inactive: UACC-257 49.5 µM | NCI-H460 30.8 µM | SW-620 > 100 µM | A498 95.7 µM | NCI-H23 47.5 µM | K562 > 100 µM | UO-31 2.73 µM | OVCAR-3 51.1 µM | LOX IMVI 24.1 µM | SF-268 40.2 µM | UACC-62 27.5 µM | HOP-92 39 µM | ACHN > 100 µM | RXF 393 38.3 µM | NCI-H522 37.9 µM | 786-0 75.2 µM | SK-MEL-5 > 100 µM

O=c1[nH]c(=O)n(C2CC(O)C(CO)O2)cc1C#Cc1cc(F)cc(F)c1 (configuration not stated)
inactive: UACC-257 > 100 µM | NCI-H460 > 100 µM | SW-620 > 100 µM | NCI-H23 > 100 µM | K562 > 100 µM | UO-31 > 100 µM | OVCAR-3 > 100 µM | LOX IMVI > 100 µM | SF-268 > 100 µM | UACC-62 > 100 µM | ACHN > 100 µM | NCI-H522 > 100 µM | 786-0 > 100 µM | SK-MEL-5 > 100 µM

COc1cc(/C=C(\NC(=O)c2ccccc2)c2nc3c(O)nc(S)nc3[nH]2)cc(OC)c1OC
inactive: SW-620 > 100 µM | NCI-H23 > 100 µM | K562 > 100 µM | SR > 100 µM | UO-31 > 100 µM | OVCAR-3 > 100 µM | SF-268 > 100 µM | UACC-62 > 100 µM | HOP-92 59.3 µM | ACHN > 100 µM | RXF 393 > 100 µM | NCI-H522 > 100 µM | 786-0 > 100 µM | SK-MEL-5 > 100 µM

CC(=O)OCCOCNC(=S)N/N=C(\C)c1ccco1
inactive: UACC-257 > 100 µM | NCI-H460 > 100 µM | SW-620 > 100 µM | A498 > 100 µM | NCI-H23 > 100 µM | K562 > 100 µM | UO-31 > 100 µM | OVCAR-3 > 100 µM | LOX IMVI > 100 µM | SF-268 > 100 µM | UACC-62 > 100 µM | ACHN > 100 µM | RXF 393 > 100 µM | NCI-H522 > 100 µM | 786-0 > 100 µM | SK-MEL-5 > 100 µM

COC(=O)[C@@]1(C)C(=O)CC[C@@H]1C=O
inactive: UACC-257 > 100 µM | NCI-H460 > 100 µM | SW-620 > 100 µM | A498 > 100 µM | NCI-H23 > 100 µM | K562 > 100 µM | SR 82.2 µM | UO-31 > 100 µM | OVCAR-3 > 100 µM | LOX IMVI > 100 µM | SF-268 > 100 µM | UACC-62 > 100 µM | ACHN > 100 µM | NCI-H522 > 100 µM | 786-0 > 100 µM | SK-MEL-5 > 100 µM

O=C1C2=C(c3ccccc31)C(c1ccc(Cl)cc1)N1C(=O)CCSC1=N2 (configuration not stated)
inactive: UACC-257 > 100 µM | SW-620 63.1 µM | A498 > 100 µM | NCI-H23 76.7 µM | K562 81.1 µM | UO-31 42.9 µM | OVCAR-3 84.3 µM | SF-268 > 100 µM | UACC-62 54.3 µM | HOP-92 31.4 µM | ACHN > 100 µM | NCI-H522 45.5 µM | 786-0 > 100 µM | SK-MEL-5 47.9 µM

CS(=O)(=O)c1c(N)c2nc(Cl)cn2c2nc3ccccc3nc12
inactive: UACC-257 > 100 µM | NCI-H460 > 100 µM | SW-620 > 100 µM | NCI-H23 68.9 µM | K562 > 100 µM | SR > 100 µM | UO-31 > 100 µM | OVCAR-3 > 100 µM | LOX IMVI > 100 µM | SF-268 > 100 µM | UACC-62 > 100 µM | ACHN > 100 µM | NCI-H522 48 µM | 786-0 62.4 µM | SK-MEL-5 > 100 µM

CCCCCC(/C=C/[C@@H]1[C@H]2CC(=O)O[C@H]2C[C@H]1N1CCOCC1)OC1CCCO1 (some centres not stated)
inactive: UACC-257 > 100 µM | NCI-H460 > 100 µM | SW-620 > 100 µM | A498 > 100 µM | NCI-H23 > 100 µM | K562 > 100 µM | UO-31 > 100 µM | OVCAR-3 > 100 µM | LOX IMVI > 100 µM | SF-268 > 100 µM | UACC-62 > 100 µM | HOP-92 > 100 µM | ACHN > 100 µM | RXF 393 > 100 µM | NCI-H522 > 100 µM | 786-0 > 100 µM | SK-MEL-5 > 100 µM
